Assay results from patent publication US8232403B2, “Bicyclic derivatives as CETP inhibitors” (Novartis AG, priority 2006, dated 2012).

Experiments:
[1] = target: T1, CETP (cholesteryl ester transfer protein) (Homo sapiens, UniProt P11597); test: CETP inhibitory activity, IC50 in buffer; type: biochemical
T1 sequence (P11597 18-493): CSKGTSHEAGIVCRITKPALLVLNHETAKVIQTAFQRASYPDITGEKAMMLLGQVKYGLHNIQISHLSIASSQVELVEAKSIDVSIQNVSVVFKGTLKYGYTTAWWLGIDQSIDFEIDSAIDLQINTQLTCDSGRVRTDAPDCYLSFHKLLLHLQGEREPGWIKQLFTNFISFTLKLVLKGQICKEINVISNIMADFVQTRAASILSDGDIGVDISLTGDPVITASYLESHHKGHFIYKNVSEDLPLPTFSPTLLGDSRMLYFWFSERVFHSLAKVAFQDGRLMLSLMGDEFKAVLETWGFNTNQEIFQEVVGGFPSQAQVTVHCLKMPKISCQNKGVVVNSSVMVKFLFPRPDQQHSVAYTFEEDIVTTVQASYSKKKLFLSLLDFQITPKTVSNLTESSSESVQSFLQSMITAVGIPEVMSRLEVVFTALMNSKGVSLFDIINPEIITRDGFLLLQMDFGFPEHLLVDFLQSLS

[2] = target: T1, CETP (cholesteryl ester transfer protein); test: In vitro CETP activity assay in human plasma; type: biochemical; parameters: tissue New Drug Development Research Center, Inc; host or cells: human EDTA plasma from healthy men
Description: (1) Preparation of Human Pro-Apolipoprotein Al (pro-apoAl)
The cDNA of human pro-apoAl (NCBI accession number: NM_000039) is cloned from human liver Quick-Clone™ cDNA (Clontech, Calif.) and inserted to a pET28a vector (Novagen, Germany) for bacterial expression. Expressed protein as a fusion protein with 6×His-tag at N-terminus in BL-21 Gold (DE3) (Strategene, Calif.) is purified using HiTrap Chelating (GE Healthcare, Conn.).
(2) Preparation of Donor Microemulsion
Pro-apoAl containing microemulsion as a donor particle is prepared following previous reports (J. Biol. Chem., 280:14918-22). Glyceryl trioleate (62.5 ng, Sigma, Mo.), 3-sn-phosphatidylcholine (583 ng, Wako Pure Chemical Industries, Japan), and cholesteryl BODIPY® FL C12 (250 ng, Invitrogen, Calif.) are dissolved in 1 mL of chloroform. The solution is evaporated, then residual solvent is removed in vacuum for more than 1 hr. The dried lipid mixture is dissolved in 500 μL of the assay buffer (50 mM Tris-HCl (pH7.4) containing 150 mM NaCl and 2 mM EDTA) and sonicated at 50° C. with a microtip (MICROSON™ ULTRASONIC CELL DISRUPTOR, Misonix, Farmingdale, N.Y.) at output power 006 for 2 min. After sonication, the solution is cooled to 40° C., added to 100 μg of human pro-apoAl, and sonicated at output power 004 for 5 min at 40° C. The solution, BODIPY-CE microemulsion as a donor molecule is stored at 4° C. after filtration through a 0.45 μm PVDF filter.
(3) In Vitro CETP Activity Assay in Human Plasma
Human EDTA plasma samples from healthy men are purchased from New Drug Development Research Center, Inc. Donor solution is prepared by a dilution of donor microemulsion with assay buffer. Human plasma (50 μL), assay buffer (35 μL) and test compound dissolved in dimethylsulfoxide (1 μL) are added to each well of 96 well half area black flat bottom plate. The reaction is started by the addition of donor solution (14 μL) into each well. Fluorescence intensities are measured every 30 min at 37° C. with excitation wave length of 485 nm and emission wavelength of 535 nm. The CETP activity (Fl/min) is defined as the changes of fluorescence intensity from 30 to 90 min.

Structure (SMILES)	IC50 [1] [µM]	IC50 [2] [µM]
CCN(CC1CCCCC1)c1nc2cc(F)ccc2cc1CN(Cc1cc(C(F)(F)F)cc(C(F)(F)F)c1)c1nnn(C)n1 [Example 2-13]	0.032	0.082
CCOC(=O)C[C@H]1CC[C@H](CN(CC)c2nc3ccccc3cc2CN(Cc2cc(C(F)(F)F)cc(C(F)(F)F)c2)c2nnn(C)n2)CC1 [Example 2-17]	0.25	0.22
CCC(CC)[C@H]1CCCN1c1nc2cc(F)c(F)cc2cc1CN(Cc1cc(C(F)(F)F)cc(C(F)(F)F)c1)c1nnn(C)n1 [Example 3-4]	0.06	0.062
Cn1nnc(N(Cc2cc(C(F)(F)F)cc(C(F)(F)F)c2)Cc2cc3cc(F)c(F)cc3nc2N2CCC[C@@H]2[C@H]2CC[C@H](CC(=O)O)CC2)n1 [Example 28, trans-(4-{(R)-1-[3-({N-[3,5-bis(trifluoromethyl)benzyl]-N-(2-methyl-2H-tetrazol-5-yl)amino}methyl)-6,7-difluoroquinolin-2-yl]pyrrolidin-2-yl}cyclohexyl)acetic acid]	0.025	0.039
Cn1nnc(N(Cc2cc(C(F)(F)F)cc(C(F)(F)F)c2)Cc2cc3ccc(F)cc3nc2N2CCCC2C2CCCCC2)n1 (stereo not shown) [Example 3-2]	0.039	0.043
CCN(CC1CCCC1)c1nc2ccccc2cc1CN(Cc1cc(C(F)(F)F)cc(C(F)(F)F)c1)c1nnn(C)n1 [Example 1, N-[(3-{N′-[3,5-bis(trifluoromethyl)benzyl]-N′-(2-methyl-2H-tetrazol-5-yl)amino}methyl)quinolin-2-yl]-N-(cyclopentylmethyl)ethylamine]	0.16	0.26
CCN(CC1CCCC1)c1nc2cc(C#N)ccc2cc1CN(Cc1cc(C(F)(F)F)cc(C(F)(F)F)c1)c1nnn(C)n1 [Example 6, 3-({N-[3,5-bis(trifluoromethyl)benzyl]-N-(2-methyl-2H-tetrazol-5-yl)amino}methyl)-2-[N′-(cyclopentylmethyl)-N′-ethylamino]quinoline-7-carbonitrile]	0.054	0.039
CCOC[C@H]1CCCN1c1nc2cc(F)ccc2cc1CN(Cc1cc(C(F)(F)F)cc(C(F)(F)F)c1)c1nnn(C)n1 [Example 3-5]	0.12	0.11
CCN(CC1CCCC1)c1nc2cc(OC)ccc2cc1CN(Cc1cc(C(F)(F)F)cc(C(F)(F)F)c1)c1nnn(C)n1 [Example 2-7]	0.044	0.075
Cn1nnc(N(Cc2cc(C(F)(F)F)cc(C(F)(F)F)c2)Cc2cc3cc(F)c(F)cc3nc2N2CCC[C@@H]2[C@H]2CC[C@H](C(=O)O)CC2)n1 [Example 21, trans-4-{(R)-1-[3-({N-[3,5-bis(trifluoromethyl)benzyl]-N-(2-methyl-2H-tetrazol-5-yl)amino}methyl)-6,7-difluoroquinolin-2-yl]pyrrolidin-2-yl}cyclohexanecarboxylic acid]	0.021	0.045
CCN(CC1CCCC1)c1nc2cc(F)c(F)c(F)c2cc1CN(Cc1cc(C(F)(F)F)cc(C(F)(F)F)c1)c1nnn(C)n1 [Example 2-10]	0.036	0.037
CCN(CC1CCCC1)c1nc2cc(F)cc(F)c2cc1CN(Cc1cc(C(F)(F)F)cc(C(F)(F)F)c1)c1ncc(N2CCOCC2)cn1 [Example 13-4]	0.0058	0.033
CCN(CC1CCCC1)c1nc2cc(F)c(F)cc2cc1CN(Cc1cc(C(F)(F)F)cc(C(F)(F)F)c1)c1nnn(C)n1 [Example 2-8]	0.04	0.024
CCN(CC1CCCCC1)c1nc2cc(F)c(F)cc2cc1CN(Cc1cc(C(F)(F)F)cc(C(F)(F)F)c1)c1nnn(C)n1 [Example 2-15]	0.043	0.062
CCN(CC1CCCC1)c1nc2cc(C)ccc2cc1CN(Cc1cc(C(F)(F)F)cc(C(F)(F)F)c1)c1nnn(C)n1 [Example 2-6]	0.028	0.092
CCN(CC1CCCCC1)c1nc2ccc(F)cc2cc1CN(Cc1cc(C(F)(F)F)cc(C(F)(F)F)c1)c1nnn(C)n1 [Example 2-12]	0.12	0.094
CCN(CC1CCOCC1)c1nc2cc(F)c(F)cc2cc1CN(Cc1cc(C(F)(F)F)cc(C(F)(F)F)c1)c1nnn(C)n1 [Example 2-22]	0.16	0.03
